# Where two headings read alike, the source gives them in different places.
# Columns and labels:
# [1] = target: SHP-2 enzyme (Met1-Leu525) (Homo sapiens (Human), UniProt Q06124); assay: SHP2 inhibition enzymatic assay; type: biochemical; settings: 0.5 nM SHP-2 activated by 500 nM IRS1 peptide, 75 μM DiFMUP substrate; read-out: SHP2wt-IC50
# Summary of the method: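 SHP-2 (Met1-Leu525), 0.5 nM, activated with 500 nM IRS1 bis-phosphopeptide, preincubated 30 min with compounds in HEPES pH 7.2 buffer with 5 mM DTT. 75 μM DiFMUP added for 30 min at room temperature, stopped with bpV; fluorescence read. IC50 from four-parameter logistic fit of % inhibition.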
# [2] = test system: ERK phosphorylation in KYSE-520 cells; assay: Phospho-ERK cellular assay; type: cell-based; settings: KYSE-520 cells, 2 h at 37° C., phospho-ERK1/2 (Thr202/Tyr204) TR-FRET, read-out: PERK IC50
# Summary of the method: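 TR-FRET read-out of ERK1/2 Thr202/Tyr204 phosphorylation was taken after overnight antibody incubation at room temperature. Before that, KYSE-520 cells were treated 2 h at 37 °C with compound dilutions and lysed 30 min. Percent inhibition relative to vehicle and cell-free wells was fitted four-parametrically to give IC50.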
# Sequence of SHP-2 enzyme (Met1-Leu525) (Q06124 1-525): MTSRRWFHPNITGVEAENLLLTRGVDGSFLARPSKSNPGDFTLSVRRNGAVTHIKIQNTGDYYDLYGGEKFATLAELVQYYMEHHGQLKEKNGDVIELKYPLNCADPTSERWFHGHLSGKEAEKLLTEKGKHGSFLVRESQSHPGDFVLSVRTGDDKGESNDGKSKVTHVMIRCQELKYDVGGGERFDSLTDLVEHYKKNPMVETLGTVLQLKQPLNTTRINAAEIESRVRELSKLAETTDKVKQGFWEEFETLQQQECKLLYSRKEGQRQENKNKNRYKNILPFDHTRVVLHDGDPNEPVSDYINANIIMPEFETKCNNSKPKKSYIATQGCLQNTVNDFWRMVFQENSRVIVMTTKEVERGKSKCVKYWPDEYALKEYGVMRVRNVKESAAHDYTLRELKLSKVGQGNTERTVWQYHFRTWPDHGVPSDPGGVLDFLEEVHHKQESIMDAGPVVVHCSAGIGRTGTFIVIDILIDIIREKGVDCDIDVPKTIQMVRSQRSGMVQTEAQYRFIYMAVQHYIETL
IC50 [1] [nM],"IC50 ([2]; Homo sapiens, KYSE-520, 2 h) [nM]",IC50 [2] [nM],Compound
< 500,< 1000,,"NC[C@]1(c2ccccc2F)[C@@H]2CCN(c3cnc4nc(Sc5ccnc(-n6cccn6)c5Cl)ccc4n3)C[C@@H]21 [Example 398, ((1S,6R,7R)-3-(6-((3-chloro-2-(1H-pyrazol-1-yl)pyridin-4-yl)thio)pyrido[2,3-b]pyrazin-2-yl)-7-(2-fluorophenyl)-3-azabicyclo[4.1.0]heptan-7-yl)methanamine]"
< 500,< 1000,,"Cc1csc([C@@]2(CN)[C@@H]3CCN(c4cnc5c(-c6ccc7nc(C)sc7c6Cl)n[nH]c5n4)C[C@@H]32)n1 [Example 444, ((1S,6R,7S)-3-(3-(7-chloro-2-methylbenzo[d]thiazol-6-yl)-1H-pyrazolo[3,4-b]pyrazin-6-yl)-7-(4-methylthiazol-2-yl)-3-azabicyclo[4.1.0]heptan-7-yl)methanamine]"
< 500,,< 1000,Cc1csc(C2(CN)[C@@H]3CN(c4cnc5c(-c6cccn7nccc67)n[nH]c5n4)C[C@@H]32)n1 (some centres unmarked) [Example 482]
< 500,< 1000,,"Cc1c(-c2ccc3nc(N4CC[C@@H]5[C@H](C4)[C@@]5(CN)c4ccccc4F)cnc3n2)ccc2nn(C)cc12 [Example 425, ((1S,6R,7R)-3-(6-(2,4-dimethyl-2H-indazol-5-yl)pyrido[2,3-b]pyrazin-2-yl)-7-(2-fluorophenyl)-3-azabicyclo[4.1.0]heptan-7-yl)methanamine]"
< 500,< 1000,,"Cn1cc2c(Cl)c(Sc3ccc4nc(N5CC[C@@H]6[C@H](C5)[C@@]6(CN)c5ccccc5F)cnc4n3)ccc2n1 [Example 400, ((1S,6R,7R)-3-(6-((4-chloro-2-methyl-2H-indazol-5-yl)thio)pyrido[2,3-b]pyrazin-2-yl)-7-(2-fluorophenyl)-3-azabicyclo[4.1.0]heptan-7-yl)methanamine]"
< 500,< 1000,,"NC[C@]1(c2ccccc2F)[C@@H]2CCN(c3cnc4c(-c5ccc(F)c6ncccc56)n[nH]c4n3)C[C@@H]21 [Example 376, ((1S,6R,7R)-7-(2-fluorophenyl)-3-(3-(8-fluoroquinolin-5-yl)-1H-pyrazolo[3,4-b]pyrazin-6-yl)-3-azabicyclo[4.1.0]heptan-7-yl)methanamine]"
< 500,< 1000,,"Cc1csc([C@@]2(CN)[C@@H]3CN(c4cc(=O)n(-c5cccc(Cl)c5Cl)c(C)n4)C[C@@H]32)n1 [Example 433, 6-((1R,5S,6r)-6-(aminomethyl)-6-(4-methylthiazol-2-yl)-3-azabicyclo[3.1.0]hexan-3-yl)-3-(2,3-dichlorophenyl)-2-methylpyrimidin-4(3H)-one]"
500 to 3000,> 5000,,"NC[C@]1(c2ccccc2F)[C@@H]2CCN(c3cc(=O)n4cc(Sc5ccnc(N)c5Cl)ccc4n3)C[C@@H]21 [Example 410, 7-((2-amino-3-chloropyridin-4-yl)thio)-2-((1S,6R,7R)-7-(aminomethyl)-7-(2-fluorophenyl)-3-azabicyclo[4.1.0]heptan-3-yl)-4H-pyrido[1,2-a]pyrimidin-4-one]"
< 500,< 1000,,"NC[C@]1(c2ccccc2F)[C@@H]2CCN(c3cnc4c(-c5ccc6[nH]ccc6c5Cl)n[nH]c4n3)C[C@@H]21 [Example 405, ((1S,6R,7R)-3-(3-(4-chloro-1H-indol-5-yl)-1H-pyrazolo[3,4-b]pyrazin-6-yl)-7-(2-fluorophenyl)-3-azabicyclo[4.1.0]heptan-7-yl)methanamine]"

# Continued, compound first:
Compound,IC50 [1] [nM],"IC50 ([2]; Homo sapiens, KYSE-520, 2 h) [nM]",IC50 [2] [nM]
"NC[C@]1(c2ccccc2F)[C@@H]2CCN(c3cnc4c(-c5ccnc(-c6ncco6)c5Cl)n[nH]c4n3)C[C@@H]21 [Example 170, ((1S,6R,7R)-3-(3-(3-chloro-2-(oxazol-2-yl)pyridin-4-yl)-1H-pyrazolo[3,4-b]pyrazin-6-yl)-7-(2-fluorophenyl)-3-azabicyclo[4.1.0]heptan-7-yl)methanamine]",< 500,< 1000,
"COc1cnc2ccc(-c3n[nH]c4nc(N5CC[C@@H]6[C@H](C5)[C@@]6(CN)c5ccccc5F)cnc34)cc2n1 [Example 188, ((1S,6R,7R)-7-(2-fluorophenyl)-3-(3-(3-methoxyquinoxalin-6-yl)-1H-pyrazolo[3,4-b]pyrazin-6-yl)-3-azabicyclo[4.1.0]heptan-7-yl)methanamine]",< 500,< 1000,
"NC[C@]1(c2ccccc2F)[C@@H]2CCN(c3cnc4c(-c5ccc6cccnc6c5)n[nH]c4n3)C[C@@H]21 [Example 252, ((1S,6R,7R)-7-(2-fluorophenyl)-3-(3-(quinolin-7-yl)-1H-pyrazolo[3,4-b]pyrazin-6-yl)-3-azabicyclo[4.1.0]heptan-7-yl)methanamine]",< 500,< 1000,
"Cc1cc([C@@]2(CN)[C@@H]3CCN(c4cnc5c(-c6cccn7nccc67)n[nH]c5n4)C[C@@H]32)no1 [Example 129, ((1S,6R,7S)-7-(5-methylisoxazol-3-yl)-3-(3-(pyrazolo[1,5-a]pyridin-4-yl)-1H-pyrazolo[3,4-b]pyrazin-6-yl)-3-azabicyclo[4.1.0]heptan-7-yl)methanamine]",< 500,< 1000,
"CNC(=O)C1(CN)C2CCN(c3cnc4c(-c5ccc6nn(C)cc6c5Cl)n[nH]c4n3)CC21 (centres unmarked) [Example 287, 7-(aminomethyl)-3-(3-(4-chloro-2-methyl-2H-indazol-5-yl)-1H-pyrazolo[3,4-b]pyrazin-6-yl)-N-methyl-3-azabicyclo[4.1.0]heptane-7-carboxamide]",< 500,< 1000,
"COc1cnc2ccc(-c3n[nH]c4nc(N5CC[C@@H]6[C@H](C5)[C@@]6(CN)c5cc(C)on5)cnc34)c(Cl)c2n1 [Example 112, ((1S,6R,7S)-3-(3-(5-chloro-3-methoxyquinoxalin-6-yl)-1H-pyrazolo[3,4-b]pyrazin-6-yl)-7-(5-methylisoxazol-3-yl)-3-azabicyclo[4.1.0]heptan-7-yl)methanamine]",< 500,< 1000,
"NC[C@]1(c2ccccc2F)[C@@H]2CCN(c3cnc4c(-c5cccc6nccn56)n[nH]c4n3)C[C@@H]21 [Example 143, ((1S,6R,7R)-7-(2-fluorophenyl)-3-(3-(imidazo[1,2-a]pyridin-5-yl)-1H-pyrazolo[3,4-b]pyrazin-6-yl)-3-azabicyclo[4.1.0]heptan-7-yl)methanamine]",< 500,< 1000,
"NCC1(c2ccccc2)C2CCN(c3cnc(Sc4cccnc4C(F)(F)F)c(N)n3)CC21 (centres unmarked) [Example 71, 6-(7-(aminomethyl)-7-phenyl-3-azabicyclo[4.1.0]heptan-3-yl)-3-((2-(trifluoromethyl)pyridin-3-yl)thio)pyrazin-2-amine]",< 500,> 5000,
"CN(C)C(=O)C1(CN)C2CCN(c3cnc4c(-c5ccc6nn(C)cc6c5Cl)n[nH]c4n3)CC21 (centres unmarked) [Example 286, 7-(aminomethyl)-3-(3-(4-chloro-2-methyl-2H-indazol-5-yl)-1H-pyrazolo[3,4-b]pyrazin-6-yl)-N,N-dimethyl-3-azabicyclo[4.1.0]heptane-7-carboxamide]",< 500,> 5000,
"Cc1cc([C@@]2(CN)[C@@H]3CCN(c4cnc5c(-c6ccc7nn(C)c(Cl)c7c6Cl)n[nH]c5n4)C[C@@H]32)no1 [Example 44, ((1S,6R,7S)-3-(3-(3,4-dichloro-2-methyl-2H-indazol-5-yl)-1H-pyrazolo[3,4-b]pyrazin-6-yl)-7-(5-methylisoxazol-3-yl)-3-azabicyclo[4.1.0]heptan-7-yl)methanamine]",< 500,< 1000,

# Source: patent US20240109900A1, “AZABICYCLIC SHP2 INHIBITORS” (IRBM S.P.A., priority 2021, published 2024)
